This is an account of results in ChEMBL document CHEMBL5390301, “Fragment-Based Screening Identifies New Quinazolinone-Based Inositol Hexakisphosphate Kinase (IP6K) Inhibitors” (ACS Med Chem Lett, 2023).

Assay [1] concerns the target T1, Inositol hexakisphosphate kinase 2 (Homo sapiens, UniProt Q9UHH9).
T1 sequence (Q9UHH9 whole entry): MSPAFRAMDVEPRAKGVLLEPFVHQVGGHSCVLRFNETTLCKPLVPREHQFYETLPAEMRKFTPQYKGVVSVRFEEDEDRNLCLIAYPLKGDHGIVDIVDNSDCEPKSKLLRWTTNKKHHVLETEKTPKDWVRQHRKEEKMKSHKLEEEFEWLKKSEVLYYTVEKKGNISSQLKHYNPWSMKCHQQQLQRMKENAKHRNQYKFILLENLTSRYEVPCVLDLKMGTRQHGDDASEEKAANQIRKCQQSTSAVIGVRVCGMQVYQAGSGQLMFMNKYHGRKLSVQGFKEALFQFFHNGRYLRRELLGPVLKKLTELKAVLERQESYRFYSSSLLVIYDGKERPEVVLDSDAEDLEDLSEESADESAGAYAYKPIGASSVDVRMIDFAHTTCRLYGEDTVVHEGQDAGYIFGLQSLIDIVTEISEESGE
The assay can be described thus: Inhibition of IP6K2 (unknown origin) incubated for 2 hrs in presence of ATP by ADPGlo reagent based assay.

The target in assay [2] is Inositol hexakisphosphate kinase 1 (Homo sapiens, UniProt Q92551). The assay can be described thus: Inhibition of IP6K1 (unknown origin) incubated for 30 min in presence of ATP by ADPGlo reagent based assay.
A short description of assay [3]: Selectivity index, ratio of IC50 for IP6K2 (unknown origin) to ratio of IC50 for IP6K3 (unknown origin).

The structures appear in SMILES notation. Some results are limits rather than exact numbers.

Inositol hexakisphosphate kinase 1, sequence (Q92551 whole entry): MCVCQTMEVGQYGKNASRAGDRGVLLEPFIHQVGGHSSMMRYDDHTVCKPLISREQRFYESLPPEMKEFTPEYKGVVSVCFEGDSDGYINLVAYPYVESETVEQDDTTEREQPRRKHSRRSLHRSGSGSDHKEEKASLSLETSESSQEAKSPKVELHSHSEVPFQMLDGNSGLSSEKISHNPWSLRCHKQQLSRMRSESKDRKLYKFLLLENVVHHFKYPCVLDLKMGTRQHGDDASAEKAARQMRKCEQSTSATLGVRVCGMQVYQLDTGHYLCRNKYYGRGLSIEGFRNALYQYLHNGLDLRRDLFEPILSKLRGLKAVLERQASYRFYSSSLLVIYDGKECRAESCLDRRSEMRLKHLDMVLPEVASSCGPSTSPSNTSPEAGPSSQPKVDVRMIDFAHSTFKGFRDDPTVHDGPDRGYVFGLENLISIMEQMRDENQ

`O=c1[nH]cnc2ccc(/C=C/c3ccc(F)cc3)cc12`: the 50% inhibitory concentration (IC50) in assay [1] is above 200 µM.

On to `O=c1[nH]cnc2ccc(N3CCCC3)nc12`, for which the IC50 in assay [2] was above 200 µM.

Take `O=c1[nH]cnc2ccc(CCc3ccccc3)cc12`: in assay [1], the IC50 worked out at 51.5 µM.

For the molecule `Nc1nc2ccc(N3CCCC3)cc2c(=O)[nH]1`, in assay [2], the half-maximal inhibitory concentration (IC50) is above 200 µM.

For the molecule `O=c1[nH]cnc2ccc(N3CC[C@H]4CCCC[C@@H]4C3)cc12`, the IC50 in assay [1] was determined as 91.9 µM.

For the molecule `O=c1[nH]cnc2ccc(OCc3ccccc3)cc12`, the IC50 in assay [2] turned out to be 13.3 µM.

With `Cc1cc(F)ccc1-c1cc(O)c2nc[nH]c(=O)c2c1`, the IC50 in assay [2] was above 200 µM.

In the case of `O=c1[nH]cnc2c([N+](=O)[O-])cc(N3CCCC3)cc12`, the IC50 in assay [2] is above 200 µM.

As to `O=c1[nH]cnc2ccc(/C=C/c3ccccn3)cc12`, the IC50 in assay [2] is 32.4 µM.

For the molecule `O=c1[nH]cnc2cc(F)c(N3CCCC3)cc12`, the IC50 in assay [2] stood at 12.2 µM.

As to `O=c1[nH]cnc2ccc(N3CCCC3)c(Cl)c12`, the 50% inhibitory concentration (IC50) in assay [2] was above 200 µM.

Regarding `O=c1[nH]cnc2c(Cl)cc(N3CCc4ccccc4CC3)cc12`, in assay [2], the concentration for half-maximal inhibition (IC50) was above 200 µM.

Consider `O=c1[nH]cnc2ccc(C3=Cc4ccccc4C3)cc12`, for which the IC50 in assay [1] was above 200 µM.

`Nc1cc2nc[nH]c(=O)c2cc1N1Cc2ccccc2C1`: the IC50 in assay [2] worked out at 0.757 µM.

For the molecule `CN(Cc1ccccc1)c1ccc2nc[nH]c(=O)c2c1`, in assay [2], the IC50 worked out at 15.4 µM.

For `O=c1[nH]cnc2ccc(N3CCCCC3)cc12`, the IC50 in assay [2] is 25.9 µM.

For `Cc1nc2ccc(/C=C/c3ccccc3)cc2c(=O)[nH]1`, in assay [2], the IC50 is 85.3 µM.

For `O=c1[nH]c(=O)c2cc(N3CCCC3)ccc2[nH]1`, in assay [2], the IC50 is above 200 µM.

For the molecule `O=c1[nH]cnc2ccc(NC3CCCCC3)cc12`, the concentration for half-maximal inhibition (IC50) in assay [2] turned out to be 71.5 µM.

Take `O=C(O)c1cccc(-c2oc3cc(O)c(O)cc3c(=O)c2O)c1`: in assay [3], the Ratio IC50 came to 5.

With `O=C1CCCc2ccc(N3CCCC3)cc21`, the IC50 in assay [2] is above 200 µM.

`CN(C)c1cccc(-c2cc(O)c3nc[nH]c(=O)c3c2)c1`: the 50% inhibitory concentration (IC50) in assay [2] turned out to be 37.4 µM.

As to `O=C1NCCc2ccc(N3CCCC3)cc21`, the concentration for half-maximal inhibition (IC50) in assay [2] was above 200 µM.

Take `CN1CCN(c2ccc3nc[nH]c(=O)c3c2)CC1`: the half-maximal inhibitory concentration (IC50) in assay [2] is above 200 µM.

`O=c1[nH]cnc2ccc(N3C[C@H]4CCCC[C@H]4C3)cc12`: the 50% inhibitory concentration (IC50) in assay [1] was above 200 µM.

As for `O=c1[nH]cnc2ccc(NCc3ccccc3)cc12`, the IC50 in assay [2] was 30.7 µM.

In the case of `O=c1[nH]cnc2ccc([N+]3=Cc4ccccc4CC3)cc12`, the IC50 in assay [2] stood at 2.88 µM.

Regarding `Nc1ccc(N2CCCC2)cc1C(=O)O`, in assay [2], the IC50 came to 22.7 µM.

`c1cc2c(cc1N1CCCC1)CNCC2`: in assay [2], the half-inhibitory concentration (IC50) was above 200 µM.

Regarding `O=c1[nH]cnc2c(F)cc(N3CCCC3)cc12`, in assay [2], the IC50 came to 6.84 µM.

For the molecule `O=S1(=O)NC=Nc2ccc(N3CCCC3)cc21`, the IC50 in assay [2] was above 200 µM.

As to `N#Cc1cc(N2CCCC2)cc2c(=O)[nH]cnc12`, the half-inhibitory concentration (IC50) in assay [1] was determined as 28.8 µM.

On to `O=c1[nH]cnc2cc(N3CCCC3)c(Br)cc12`, for which, in assay [2], the half-maximal inhibitory concentration (IC50) amounted to 47.6 µM.

As to `O=c1[nH]cnc2ccc(N3CCCC3)cc12`, the IC50 in assay [1] is above 200 µM.

In the case of `O=c1[nH]cnc2ccc(N3CCCC3)c(Br)c12`, in assay [2], the IC50 is above 200 µM.

Consider `O=c1[nH]cnc2ccc(N3CCc4ccccc4CC3)cc12`, for which the IC50 in assay [1] is above 200 µM.

Turning to `O=c1[nH]cnc2c(Cl)cc(N3CCCC3)cc12`, the IC50 in assay [2] came to 2.25 µM.

Regarding `O=C1CCNc2ccc(/C=C/c3ccccc3)cc21`, in assay [2], the IC50 is above 200 µM.

For the molecule `CN(C)c1ccc2nc[nH]c(=O)c2c1`, the IC50 in assay [2] stood at 75.4 µM.

As for `O=c1[nH]cnc2ccc(N3CCc4ccccc4C3)cc12`, the IC50 in assay [2] came to 1.12 µM.

For the molecule `CC1(C)C[N+](c2ccc3nc[nH]c(=O)c3c2)=Cc2ccccc21`, the IC50 in assay [2] was 0.595 µM.

For the molecule `O=c1[nH]cnc2cc([N+](=O)[O-])c(N3Cc4ccccc4C3)cc12`, in assay [2], the 50% inhibitory concentration (IC50) worked out at 2.41 µM.

Turning to `Nc1cc2nc[nH]c(=O)c2cc1N1CCCC1`, the half-inhibitory concentration (IC50) in assay [2] is 34.3 µM.

For `O=c1[nH]cnc2ccc(N3CCC(c4ccccc4)CC3)cc12`, the IC50 in assay [2] was determined as 15.3 µM.

For `O=c1[nH]cnc2ccc([N+]3=Cc4ccccc4CCC3)cc12`, in assay [2], the IC50 is 45.2 µM.

Regarding `O=c1[nH]cnc2ccc(C#Cc3ccccc3)cc12`, the IC50 in assay [1] turned out to be 96.3 µM.

As to `O=c1[nH]cnc2ccc(N3CCCc4ccccc4C3)cc12`, the 50% inhibitory concentration (IC50) in assay [2] stood at 0.51 µM.

`O=c1[nH]cnc2ccc(/C=C/c3ccncc3)cc12`: the IC50 in assay [2] came out at 127 µM.

Turning to `O=c1[nH]cnc2cnc(N3CCCC3)cc12`, the IC50 in assay [2] was 94.4 µM.

For `O=c1[nH]cnc2c(Cl)cc(/C=C/c3ccccc3)cc12`, the IC50 in assay [2] is above 200 µM.

For `O=C(O)c1cc(/C=C/c2ccccc2)cc2c(=O)[nH]cnc12`, the IC50 in assay [2] came out at 67.2 µM.

As to `Nc1cc(N2CCCC2)cc2c(=O)[nH]cnc12`, the half-inhibitory concentration (IC50) in assay [2] stood at 189 µM.

On to `Nc1ncnc2ccc(N3CCCC3)cc12`, for which the 50% inhibitory concentration (IC50) in assay [2] stood at 48.9 µM.

Regarding `O=c1[nH]cnc2ccc(N3Cc4cccc(F)c4C3)cc12`, the IC50 in assay [2] is 1.07 µM.

`CN(C)C1CCN(c2ccc3nc[nH]c(=O)c3c2)CC1`: the IC50 in assay [2] is above 200 µM.

On to `O=c1[nH]cnc2ncc(/C=C/c3ccccc3)cc12`, for which the concentration for half-maximal inhibition (IC50) in assay [2] came out at 118 µM.

For the molecule `Cn1cnc2ccc(/C=C/c3ccccc3)cc2c1=O`, the IC50 in assay [2] came out at 112 µM.

As for `Cc1nc2ccc(N3CCCC3)cc2c(=O)[nH]1`, the IC50 in assay [2] was above 200 µM.

For the molecule `O=c1[nH]cnc2ccc(/C=C/c3ccccc3)cc12`, the half-maximal inhibitory concentration (IC50) in assay [1] was 193 µM.
